{"source": "paper PMC5844530", "about": "“Fosmetpantotenate (RE-024), a phosphopantothenate replacement therapy for pantothenate kinase-associated neurodegeneration: Mechanism of action and efficacy in nonclinical models” (PLoS ONE, 2018)", "key": {"[1]": {"assay": "Pharmacokinetics in whole blood, CD-1 mice", "conditions": "for % Parent AUCAll: CD1 mouse, metabolite AUCall/Parent AUCall x 100; for Whole Blood Conc. of compound 3: CD-1 mice; for concentration at 2 h / concentration at 8 h / concentration at 0.5 h: male, CD-1, mouse, whole blood, po, Whole Blood Conc. of compound 3, CD-1 mice", "description": "(§1) The whole blood samples (0.5 mL) were collected into syringes that were prefilled with 2.5 mL of ice-cold 0.1% formic acid in acetonitrile. The volume ratio of the whole blood to 0.1% formic acid in acetonitrile was 1/5 (v/v). Samples were frozen (-70°C) until analyzed by LC-MS/MS.\n(§2) Standard curves and quality control (QC) samples were prepared fresh on the day of analysis by serial dilution of the standard mixture in quenched whole blood (1 part of blood to 5 parts of 0.1% formic acid in acetonitrile) and centrifuged. […] The frozen study samples were thawed in an ice/water bath and centrifuged. Supernatant (50 μL) from standards, QC samples, and study samples was transferred to a 96-well plate and dried completely under nitrogen. The dried residues were reconstituted with 100 μL of 0.1% formic acid in water containing internal standard (5 ng/mL of ^15N/^13C3-RE-024-02) and analyzed by LC-MS/MS.\n(§3) LC-MS/MS analysis for blood pharmacokinetic samples: Samples were analyzed using an Agilent 1100 binary pump (Agilent Technologies, Santa Clara, CA, USA), connected to an AB Sciex API 6500 mass spectrometer (SCIEX, Framingham, MA, USA). An electrospray ionization source was used, scanning in the positive mode. […] The chromatography column was a Varian Metasil AQ 120–5 C18 column, 5 μm, 50 x 2.00 mm (Part No. A0530050X020) at ambient temperature, with a 0.5 mL/min flow rate and a 20 μL injection volume. Mobile phase (A) consisted of 0.1% formic acid in water; while mobile phase (B) consisted of 0.1% formic acid in acetonitrile:water (9:1, v/v).\n(§4) Quantitation of in vivo samples: Peak areas were integrated using Analyst software (AB Sciex, Concord, Ontario, Canada). […] Calibration standards (at a minimum 7 per curve) were fit by linear regression with (1/x^2) weighting. QC samples were used (triplicate) at 3 concentrations for all tandem mass spectrometry (MS/MS) runs.\n(§5) Pharmacokinetic calculations: PK analysis was performed using Phoenix WinNonlin®, Build 6.3.0.395 (Certara, Princeton, NJ, USA) using a non-compartmental model (PO dose = model 200 for extravascular dosing). […] Post-dose concentrations below the limit of quantitation (BLQ) were omitted from calculation."}, "[2]": {"assay": "Pharmacokinetics in whole blood, cynomolgus monkeys", "conditions": "for % Parent AUCAll: Cynomolgus monkey, 300 mg/kg PO, metabolite AUCall/Parent AUCall x 100", "description": "as §1, §2, §3, §4, §5"}, "[3]": {"assay": "Pharmacokinetics in whole blood, Sprague-Dawley rats", "conditions": "Sprague-Dawley rat, metabolite AUCall/Parent AUCall x 100"}}, "note": "Values joined by “and” are separate entries in the source; they are usually repeats but may differ in a detail not shown here. Equal entries are not always repeated."}
{"compound": "CC1(C)COP(=O)(O)O[C@H]1C(=O)NCCC(=O)O", "note": "[Compound 3]", "values": [{"measurement": "% Parent AUCAll", "setting": "[1]; 100 mg/kg PO", "result": "8,900%"}, {"measurement": "% Parent AUCAll", "setting": "[1]; 300 mg/kg PO", "result": "18,900%"}, {"measurement": "% Parent AUCAll", "setting": "[1]; 700 mg/kg PO", "result": "1,990%"}, {"measurement": "Whole Blood Conc. of compound 3", "setting": "[1]; single 100 mg/kg RE-024-02 PO, 4 hr, LLOQ 6 ng/mL", "result": "BQL"}, {"measurement": "Whole Blood Conc. of compound 3", "setting": "[1]; single 100 mg/kg RE-024-02 PO, 4 hr, LLOQ 21.3 nM", "result": "BQL"}, {"measurement": "Whole Blood Conc. of compound 3", "setting": "[1]; single 700 mg/kg RE-024-02 PO, 0.5 hr, LLOQ 6 ng/mL, 700 mg/kg", "result": "126 ng/mL and 156 ng/mL and 189 ng/mL"}, {"measurement": "Whole Blood Conc. of compound 3", "setting": "[1]; single 700 mg/kg RE-024-02 PO, 0.5 hr, LLOQ 21.3 nM, 700 mg/kg", "result": "448.1 nM and 554.8 nM and 672.1 nM"}, {"measurement": "Whole Blood Conc. of compound 3", "setting": "[1]; single 700 mg/kg RE-024-02 PO, 2 hr, LLOQ 6 ng/mL, 700 mg/kg", "result": "67.2 ng/mL and 69.6 ng/mL and 72 ng/mL"}, {"measurement": "Whole Blood Conc. of compound 3", "setting": "[1]; single 700 mg/kg RE-024-02 PO, 2 hr, LLOQ 21.3 nM, 700 mg/kg", "result": "239 nM and 247.5 nM and 256 nM"}, {"measurement": "concentration at 2 h", "setting": "[1]; 100 mg/kg, single 100 mg/kg RE-024-02 PO, 2 hr, LLOQ 6 ng/mL", "result": 6.7, "unit": "ng/mL"}, {"measurement": "concentration at 2 h", "setting": "[1]; 100 mg/kg, single 100 mg/kg RE-024-02 PO, 2 hr, LLOQ 21.3 nM", "result": 23.7, "unit": "nM"}, {"measurement": "concentration at 8 h", "setting": "[1]; 100 mg/kg, single 100 mg/kg RE-024-02 PO, LLOQ 6 ng/mL", "result": 6.1, "unit": "ng/mL"}, {"measurement": "concentration at 8 h", "setting": "[1]; 100 mg/kg, single 100 mg/kg RE-024-02 PO, LLOQ 21.3 nM", "result": 21.6, "unit": "nM"}, {"measurement": "concentration at 8 h", "setting": "[1]; 300 mg/kg, single 300 mg/kg RE-024-02 PO, LLOQ 6 ng/mL", "result": 7.6, "unit": "ng/mL"}, {"measurement": "concentration at 8 h", "setting": "[1]; 300 mg/kg, single 300 mg/kg RE-024-02 PO, LLOQ 21.3 nM", "result": 26.9, "unit": "nM"}, {"measurement": "concentration at 0.5 h", "setting": "[1]; 700 mg/kg, single 700 mg/kg RE-024-02 PO, 0.5 hr, LLOQ 6 ng/mL", "result": 162, "unit": "ng/mL"}, {"measurement": "concentration at 0.5 h", "setting": "[1]; 700 mg/kg, single 700 mg/kg RE-024-02 PO, 0.5 hr, LLOQ 21.3 nM", "result": 576, "unit": "nM"}, {"measurement": "concentration at 2 h", "setting": "[1]; 700 mg/kg, single 700 mg/kg RE-024-02 PO, 2 hr, LLOQ 6 ng/mL", "result": 48.2, "unit": "ng/mL"}, {"measurement": "concentration at 2 h", "setting": "[1]; 700 mg/kg, single 700 mg/kg RE-024-02 PO, 2 hr, LLOQ 21.3 nM", "result": 172, "unit": "nM"}, {"measurement": "% Parent AUCAll", "setting": "[2]", "result": 9, "unit": "%"}, {"measurement": "concentration at 0.25 h", "setting": "[2]; cynomolgus monkey, whole blood, po, 300 mg/kg, Concentration of compound 3 in whole blood, cynomolgus monkeys, single oral 300 mg/kg fosmetpantotenate, 0.25 hr, LLOQ 2.13 nM", "result": 5.33, "unit": "nM"}, {"measurement": "concentration at 4 h", "setting": "[2]; cynomolgus monkey, whole blood, po, 300 mg/kg, Concentration of compound 3 in whole blood, cynomolgus monkeys, single oral 300 mg/kg fosmetpantotenate, 4 hr, LLOQ 2.13 nM", "result": 432, "unit": "nM"}, {"measurement": "concentration at 8 h", "setting": "[2]; cynomolgus monkey, whole blood, po, 300 mg/kg, Concentration of compound 3 in whole blood, cynomolgus monkeys, single oral 300 mg/kg fosmetpantotenate, 8 hr, LLOQ 2.13 nM", "result": 619, "unit": "nM"}, {"measurement": "Concentration of compound 3 in whole blood", "setting": "[2]; cynomolgus monkeys, single oral 300 mg/kg fosmetpantotenate, 0.25 hr, LLOQ 2.13 nM, 300 mg/kg", "result": 3.41, "unit": "nM"}, {"measurement": "Concentration of compound 3 in whole blood", "setting": "[2]; cynomolgus monkeys, single oral 300 mg/kg fosmetpantotenate, 4 hr, LLOQ 2.13 nM, 300 mg/kg", "result": 654.2, "unit": "nM"}, {"measurement": "Concentration of compound 3 in whole blood", "setting": "[2]; cynomolgus monkeys, single oral 300 mg/kg fosmetpantotenate, 8 hr, LLOQ 2.13 nM, 300 mg/kg", "result": 508.25, "unit": "nM"}, {"measurement": "% Parent AUCAll", "setting": "[3]; 300 mg/kg PO", "result": "4,130%"}, {"measurement": "% Parent AUCAll", "setting": "[3]; 700 mg/kg PO", "result": 209, "unit": "%"}]}
{"compound": "COC(=O)[C@H](C)NP(=O)(OCC(C)(C)[C@@H](O)C(=O)NCCC(=O)O)Oc1ccccc1", "note": "(stereo partly shown) [Compound 4]", "values": [{"measurement": "% Parent AUCAll", "setting": "[1]; 100 mg/kg PO", "result": "3,180%"}, {"measurement": "% Parent AUCAll", "setting": "[1]; 300 mg/kg PO", "result": "12,600%"}, {"measurement": "% Parent AUCAll", "setting": "[1]; 700 mg/kg PO", "result": "10,500%"}, {"measurement": "% Parent AUCAll", "setting": "[2]", "result": 301, "unit": "%"}, {"measurement": "concentration at 0.083 h", "setting": "[2]; cynomolgus monkey, in vivo, po, 300 mg/kg, Concentration of compound 4 in whole blood, cynomolgus monkeys, single oral 300 mg/kg fosmetpantotenate, 0.083 hr, sum of diastereomers, LLOQ 1.30 nM", "result": 13.2, "unit": "nM"}, {"measurement": "concentration at 2 h", "setting": "[2]; cynomolgus monkey, in vivo, po, 300 mg/kg, Concentration of compound 4 in whole blood, cynomolgus monkeys, single oral 300 mg/kg fosmetpantotenate, 2 hr, sum of diastereomers, LLOQ 1.30 nM", "result": 5.07, "unit": "µM"}, {"measurement": "concentration at 4 h", "setting": "[2]; cynomolgus monkey, in vivo, po, 300 mg/kg, Concentration of compound 4 in whole blood, cynomolgus monkeys, single oral 300 mg/kg fosmetpantotenate, 4 hr, sum of diastereomers, LLOQ 1.30 nM", "result": 665, "unit": "nM"}, {"measurement": "Concentration of compound 4 in whole blood", "setting": "[2]; cynomolgus monkeys, single oral 300 mg/kg fosmetpantotenate, 0.083 hr, sum of diastereomers, LLOQ 1.30 nM, 300 mg/kg", "result": 8.08, "unit": "nM"}, {"measurement": "Concentration of compound 4 in whole blood", "setting": "[2]; cynomolgus monkeys, single oral 300 mg/kg fosmetpantotenate, 2 hr, sum of diastereomers, LLOQ 1.30 nM, 300 mg/kg", "result": 5694.67, "unit": "nM"}, {"measurement": "Concentration of compound 4 in whole blood", "setting": "[2]; cynomolgus monkeys, single oral 300 mg/kg fosmetpantotenate, 4 hr, sum of diastereomers, LLOQ 1.30 nM, 300 mg/kg", "result": 600.1, "unit": "nM"}, {"measurement": "% Parent AUCAll", "setting": "[3]; 300 mg/kg PO", "result": "2,820%"}, {"measurement": "% Parent AUCAll", "setting": "[3]; 700 mg/kg PO", "result": 849, "unit": "%"}]}
